Results reported in paper PMC8893300, “A Dynamic Mass Redistribution Assay for the Human Sweet Taste Receptor Uncovers G-Protein Dependent Biased Ligands” (Frontiers in Pharmacology, 2022).
Like-named read-outs stand apart in the source and are kept apart here. Marks after values point to notes of the source that are not given here.

Target: T1, human sweet taste receptor (hT1R2/hT1R3) coupled to Gα15 (Homo sapiens, UniProt Q7RTX0+Q8TE23)
T1 construct: expressed in transfected cells
T1 sequence (Q8TE23 20-839): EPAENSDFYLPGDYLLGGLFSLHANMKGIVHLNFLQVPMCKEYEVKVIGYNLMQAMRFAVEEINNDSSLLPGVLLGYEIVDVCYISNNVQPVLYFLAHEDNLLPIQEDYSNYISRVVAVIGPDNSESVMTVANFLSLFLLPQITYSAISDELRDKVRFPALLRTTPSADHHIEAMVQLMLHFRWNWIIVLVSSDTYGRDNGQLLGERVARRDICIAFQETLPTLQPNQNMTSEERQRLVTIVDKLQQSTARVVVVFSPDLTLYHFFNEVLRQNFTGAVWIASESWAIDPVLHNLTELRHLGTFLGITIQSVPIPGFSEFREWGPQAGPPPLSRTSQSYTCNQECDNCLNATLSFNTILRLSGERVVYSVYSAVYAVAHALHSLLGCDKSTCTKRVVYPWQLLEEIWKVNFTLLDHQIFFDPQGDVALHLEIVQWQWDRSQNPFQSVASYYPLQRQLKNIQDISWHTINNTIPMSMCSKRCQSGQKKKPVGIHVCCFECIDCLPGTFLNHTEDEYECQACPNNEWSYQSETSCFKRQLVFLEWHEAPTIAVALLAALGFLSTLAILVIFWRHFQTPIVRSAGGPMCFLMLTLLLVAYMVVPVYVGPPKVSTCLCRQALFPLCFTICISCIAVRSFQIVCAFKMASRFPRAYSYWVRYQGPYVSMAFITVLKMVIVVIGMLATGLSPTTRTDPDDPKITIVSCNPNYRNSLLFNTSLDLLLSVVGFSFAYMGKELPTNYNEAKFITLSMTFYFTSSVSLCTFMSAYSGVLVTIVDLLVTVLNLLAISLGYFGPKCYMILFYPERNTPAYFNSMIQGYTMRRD
T1 sequence (Q7RTX0 21-852): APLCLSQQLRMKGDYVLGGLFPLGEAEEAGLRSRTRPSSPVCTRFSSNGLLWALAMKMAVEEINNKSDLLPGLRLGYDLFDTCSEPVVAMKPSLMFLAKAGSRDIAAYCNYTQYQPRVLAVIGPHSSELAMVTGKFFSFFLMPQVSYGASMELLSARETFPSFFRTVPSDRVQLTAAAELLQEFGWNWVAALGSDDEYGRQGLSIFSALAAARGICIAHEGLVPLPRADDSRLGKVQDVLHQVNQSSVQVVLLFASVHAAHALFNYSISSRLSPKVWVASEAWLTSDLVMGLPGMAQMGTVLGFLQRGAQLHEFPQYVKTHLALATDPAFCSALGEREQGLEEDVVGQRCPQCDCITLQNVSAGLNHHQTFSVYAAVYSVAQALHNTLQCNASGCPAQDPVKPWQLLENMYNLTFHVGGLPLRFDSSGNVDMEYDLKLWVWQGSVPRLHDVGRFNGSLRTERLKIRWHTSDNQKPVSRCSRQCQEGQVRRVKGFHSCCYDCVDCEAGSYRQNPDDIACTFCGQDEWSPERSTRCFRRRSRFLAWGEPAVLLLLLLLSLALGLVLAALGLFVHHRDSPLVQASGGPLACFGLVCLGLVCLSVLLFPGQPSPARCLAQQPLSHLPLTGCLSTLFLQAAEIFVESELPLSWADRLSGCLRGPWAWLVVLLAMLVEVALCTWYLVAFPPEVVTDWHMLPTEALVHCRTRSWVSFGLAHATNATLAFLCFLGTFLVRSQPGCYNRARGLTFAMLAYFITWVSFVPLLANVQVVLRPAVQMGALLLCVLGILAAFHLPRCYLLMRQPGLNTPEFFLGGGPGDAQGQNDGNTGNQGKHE
Experiment: FLIPR calcium mobilization assay, R2/R3 U2OS cells transduced with Gα15 baculovirus
Assay type: cell-based
Conditions: for ΔlogR FLIPR Mean: FLIPR-Gα15, operational model, logR minus sucralose logR; for Activity in FLIPR assay Emax: Gα15, top asymptote of dose-response normalized to 1 mM sucralose; for EC50: R2/R3 U2OS cells expressing Gα15; for Bias factor: inverse log of ΔΔlogR, FLIPR-Gα15 vs DMR; for ΔΔlogR Mean: ΔlogR FLIPR-Gα15 minus ΔlogR DMR; for fold difference DMR EC50 vs FLIPR EC50 (more potent in FLIPR): DMR EC50 over FLIPR-Gα15 EC50

[1] = read-out: Activity in FLIPR assay EC50
[2] = read-out: Activity in FLIPR assay pEC50 (converted)

Row | Structure (SMILES) | ΔlogR FLIPR Mean | Activity in FLIPR assay Emax | EC50 [1] [nM] | EC50 [2] [nM] | Bias factor | ΔΔlogR Mean | fold difference DMR EC50 vs FLIPR EC50 (more potent in FLIPR)
1 | COC(=O)[C@H](Cc1ccccc1)NC(=O)[C@H](CC(=O)O)NCCC(C)(C)C [Neotame] | 1.65 | 116**** | 1600 | 1530 | 3.2 | 0.50 | –
2 | CC(C)Oc1ccc(NC(=S)NCc2ccc[nH]2)cc1 [S819] | 3.11 | 181**** | 70 | 74.5 | 3.9 | 0.59 | about 10 times
3 | CC(C)Oc1ccc(NC(=S)NCc2cccs2)cc1 [S5227] | 2.52 | 177**** | 300 | 335 | 4.8 | 0.68 | about 10 times
